Test: Iron-chelating activity after 4 hrs by CAS assay
Assay type: functional

Question: For CC(C)CC(=O)N(O)CCCCCNC(=O)CCC(=O)N(O)CCCCCNC(=O)CCC(=O)N(O)CCCCCN, which ED50 is on record?
Answer: 115 µM

Question: For CC(=O)N(O)CCCCCNC(=O)CCC(=O)N(O)CCCCCNC(=O)CCC(=O)N(O)CCCCCN, which ED50 is on record?
Answer: 120 µM

Question: Which ED50 does the source give for CC(C)CC(=O)N(O)CCCCCNC(=O)CCC(=O)N(O)CCCCCNC(=O)CCC(=O)O here?
Answer: 110 µM

Question: Which ED50 does the source give for CC(C)CC(=O)N(O)CCCCCNC(=O)CCC(=O)O here?
Answer: > 1000 µM

Question: For COC(=O)CCC(=O)NCCCCCN(O)C(=O)CC(C)C, which ED50 is on record?
Answer: > 1000 µM

Source: ChEMBL document CHEMBL1142110, “Tenacibactins A-D, hydroxamate siderophores from a marine-derived bacterium, Tenacibaculum sp. A4K-17” (J Nat Prod, 2007)
